# “Also recorded” adds a separate entry of the source. Where two headings read alike, the source gives them in different places.
# How the values were obtained:
# [1] = tested on: phospho-Tau (Ser199); assay: Tau phosphorylation (Ser199) ELISA in SH-SY5Y cells; assay type: cell-based; settings: Homo sapiens, read-out: p-Tau Inhibition ELISA EC50 SH-SY5Y
# Experimental: SH-SY5Y cells were maintained in DMEM supplemented with 10% heat-inactivated FBS and 1% penicillin-streptomycin (Invitrogen) unless otherwise stated. ELISA kits for phospho-Tau (Ser199) and total Tau detection were purchased from Invitrogen (KHB0041, and KHB7041 respectively). Briefly, SH-SY5Y cells were seeded at 50,000 cells/200 μL/well in 96 well plates and after overnight incubation, treated with various doses of chemical compounds at 0.2 μL/well. The next day cells were washed with PBS twice before being lysed in 100 μL Lysis buffer/well. 50 μL of cell lysate of each sample was transferred to an ELISA vial coated with the capture antibody, and the mixture was incubated at room temperature for 2 hours, before the supernatant was aspired, and each vial washed four times. 100 μL of detection antibody was then added to each well, incubated for 1 hour, and then washed four times. […] Data were scaled using the positive and neutral controls and fitted for IC50.
# A standard protocol using an immunoassay kit to quantify total Tau protein and phospho-Tau (Ser199) protein in SH-SY5Y human neuroblastoma cells was employed. Human Tau (Total) ELISA kit (#KHB0041) and human phosphor-Tau (Ser199) ELISA kit were purchased from Invitrogen (#KHB7041)
# 50,000 cells were seeded in 200 μl per well in cell culture media (250,000 cells/ml). Cells were incubated overnight @ 37° C. Cells were induced with appropriate doses of inhibitors and incubated for approximately 24 hrs @ 37° C. Cell lysates were harvested by washing cells once with cold PBS and adding 100 μl cold lysis buffer and pipette up and down vigorously. Lysate was transferred to 96 well PCR plate and centrifuged at 4,000 rpm for 20 minutes at 4° C.
# Well strips were warmed and inserted into the frame. 100μ of standard diluent buffer were loaded into ZERO wells, and 100 ul of each standard concentrations (both total Tau and pTau) were loaded into wells in duplicate. Samples were loaded to each well that would be analyzed for total Tau, 85 μl standard diluent buffer and 15 μl cell lysate were added. To each well that will be analyzed for pTau (Ser199) 50 μl standard diluent buffer+50 μl cell lysate were added. Plates were tapped gently on the side to mix. Certain wells were left empty for chromogen blank. Plates were covered and incubated for 2 hours at room temperature. Wells were aspirated 4 times (400 μl diluted wash buffer, left for 30 seconds, aspirated all wells; alternatively used automated plate washer and programmed in a 30 second hold between each cycle). 100 μl of detection antibody solution were added to each well except chromogen blanks. Anti-total Tau was added to wells being analyzed for total Tau, anti-pTau (Ser199) was added to wells being analyzed for pTau (Ser199), and plates were tapped gently on the side to mix. Plates were covered and incubated for 1 hour at room temperature, then wells were aspirated and washed 4 times as described above. 100 μl of anti-rabbit IgG HRP working solution (prepared ahead) were added to each well except chromogen blanks, and plates were covered and incubated for 30 minutes at room temperature, then wells were aspirated and washed 4 times as described above. 100 μl of stabilized chromogen were added to each well (the liquid turned blue). Plates were incubates for 30 minutes at room temperature in the dark, then 100 μl of stop solution were added to each well, and plates were tapped gently on the side to mix. Absorbance of each well was read at 450 nm (within 2 hours of adding stop solution).
# [2] = molecular target: T1, GSK3β (Homo sapiens, UniProt P49841); settings: GSK3β over GSK3α
# [3] = tested on: amphetamine-induced hyperactivity; assay: Amphetamine-induced hyperactivity (AIH) in mice; assay type: in vivo, mouse; settings: versus vehicle
# [4] = tested on: AML cell lines; assay: May-Grunwald Giemsa morphology of AML cell lines; assay type: cell-based; settings: three days after treatment
# Experimental: On day three post-chemical treatment, cytospin preparations were performed. Changes in cellular morphology were evaluated by May-Grunwald Giemsa staining (Sigma Aldrich). Images were acquired by light microscopy at 400× magnification.
# [5] = tested on: HL-60 and U937 cells; assay: GE-HTS 32-gene myeloid differentiation signature; assay type: cell-based; settings: three days
# Source text: This assay uses ligation-mediated amplification with a fluorescent bead-based detection system to quantify the expression of up to 500 genes in a single well. Two primary scoring methods are used to quantify induction of the 32-gene myeloid differentiation signature. The Summed Score combines expression ratios (marker gene/control gene) by summing them with a sign determined by the expected direction of regulation from ATRA-treated positive controls. The Weighted Summed Score combines expression ratios by summing them with a weight and sign determined by the signal-to-noise ratio of each expression ratio for the positive control (ATRA-treated) and negative control (DMSO-treated) samples. To assess the statistical significance of the differences between these differentiation scores a one-way ANOVA with a Bonferroni correction as a post-hoc test was employed.
# [6] = Pharmacokinetics and brain distribution in male C57BL/6 mice; settings: single i.p. dose 30 mg/kg (CHIR99021 12.5 mg/kg)
# [7] = for Mouse microsomes, % remaining: after 1 hour; for Microsomal stability 60 min: in mice
# [8] = tested on: panel of 311 kinases
# Experimental: Briefly, a selection of compounds was screened against a panel of kinases at a single concentration of 10 μM. […] This was completed utilizing one of two assays depending on the kinase being examined.
# Test compounds were dissolved in and diluted with dimethylsulfoxide (DMSO) to generate a 100× sample solution. These were then diluted to 4× sample solutions in assay buffer to make the final test compound solutions. Reference compounds for assay control were prepared similarly.
# A solution of IMAP binding reagent (IMAP Screening Express kit; Molecular Devices) (60 μL) was added to each well and incubated for 30 minutes.
# A solution of termination buffer (QuickScout Screening assist MSA; Carna Biosciences) (60 μL) was added to each well. The entire reaction mixture was then applied to a LabChip3000 system (Caliper Life Science) and the product and substrate peptide peaks were separated and quantified.
# [9] = tested on: human iPSC-NPCs; assay: Neurogenesis assay (TCF/LEF-luciferase in human iPSC-NPCs); assay type: cell-based; settings: 24-h treatment
# Experimental: Human neuroprogenitor cells were generated and derived according to methods known in the art. […] Single-cell suspensions were prepared from the human iPSC-NPCs, stably integrated with the TCF/LEF-luciferase reporter, and dispensed into 96- or 384-well plates at the seeding densities of 20,000 or 6,000 per well, respectively, using a Matrix WellMate (Thermo Scientific) microplate dispenser. A 96-well plate format was used for measuring Wnt3a and lithium (lithium chloride solution, 10 M; Fluka, St. Louis, Mo.) dose-response effects, whereas a 384-well plate format was used for all small-molecule probe treatments and chemical screening. The next day, cells were subjected to various 24-h treatments. Just prior to the luminescence reading, the plates were taken out of a 37° C. incubator and equilibrated to room temperature for 30 min before the SteadyGlo reagent (Promega, Madison, Wis.) was dispensed (volume equal 1:1 SteadyGlo:culture medium). Luminescence was measured after a 10-min incubation using an EnVision multilabel plate reader (PerkinElmer, Waltham, Mass.).
# [10] = molecular target: T1, GSK3β; assay: Mechanism of action: ATP competition at GSK3β (Lineweaver-Burk, IC50 at two ATP concentrations); assay type: biochemical; settings: versus ATP
# Experimental: . IC50s were measured against GSK3β at two different ATP concentrations. […]
# [11] = tested on: β-catenin nuclear translocation; assay: β-Catenin nuclear localization assay in U2-OS cells; assay type: cell-based; settings: Homo sapiens, U2OS, read-out: beta-Catenin translocation EC50
# Experimental: U2-OS cells stably expressing two complimentary β-galactosidase fragments (one part on β-Catenin and the other constitutively expressed in the cell nucleus) were maintained in DMEM F12 supplemented with 10% FBS. When β-catenin translocates to the nucleus, the complimentary fragments form a complete β-galactosidase, the amount of which is then quantified by β-galactosidase activity (DiscoveRx). Cells were seeded in a 384-well CulturPlate (Perkin Elmer, Boston, Mass.) with 10,000 per well in 20 μL DMEM F12 containing 10% FCS, 100 U/ml penicillin and 100 m/mL streptomycin. After overnight incubation at 37° C., cells were stimulated with 100 nL test compound/well and then returned to the incubator for 6 h. Cells were disrupted using 12 μL substrate-containing lysis buffer from the PathHunter Detection Kit in the formulation specified by the supplier (DiscoveRx). Plates were incubated in the dark for 1 h at room temperature before measurement of β-galactosidase activity (luminescence) on an EnVision plate reader (PerkinElmer, Waltham, Mass.). Distance between plate and detector was 0.2 mm. Measurement time(s)=0.1; Glow (CT2) correction factor=0.
# [12] = tested on: TCF/LEF reporter; assay: cells; settings: Homo sapiens, HEK293, read-out: TCF/LEF EC50, HEK293 cells
# Experimental: HEK293-pBARL cells were derived from HEK293 cells and they stably expressed a firefly-luciferase reporter gene driven by a promoter containing 12 copies of TCF/LEF binding sequences. These cells were maintained in DMEM and supplemented with 10% FBS and 1% penicillin-streptomycin (Invitrogen). Reporter gene assays were conducted in anti-biotic free media. […] These cells also contained a renilla-luciferase reporter gene driven by the ubiquitous EF1α promoter as a control. HEK293-pBarl reporter cell lines were seeded into 384-well culture plates (Corning) at 6000 cells/well. 24 hours after plating, cells were treated overnight with relevant compounds and assayed using DualGlo assay kit (Promega). Luminescent intensities were read by EnVision (PerkinElmer, Waltham, Mass.). Firefly luciferase intensity is normalized by renilla luciferase intensity.
# Cells were cultured in 384 well plates to appropriate density (40 μl total plating volume). 24 hours after plating, cells were treated with 100 nl compounds. 24 hours after incubation with compounds (48 hours after plating), assay reagents were prepared by mixing Luciferase Assay solution with Luciferase substrate and Stop & Glo solution to Stop & Glo substrate (extra reagents can be aliquoted and frozen for future use and are stable for at least one freeze/thaw cycle). […] The plate was spun down and 10 minutes were allowed for signal stabilization. Luciferase signal on the Perkin Elmer EnVision using the following parameters: Distance between plate & detector (mm)=0.2; Measurement time(s)=0.1; Glow (CT2) correction factor=0. Once the initial data is secure, a volume of Stop & Glo was added equal to each well equal to the volume of Luciferase reagent added above (If 10 μl Luciferase Reagent was added, 10 μl Stop & Glo was also added). The plate was spun down and 10 minutes were allowed for signal stabilization. The plate was read on the EnVision using the same parameters detailed above.
# [13] = molecular target: T1, GSK3β; assay: biochemical
# Experimental: 100 nL/well compounds were pinned. […] Incubated at room temperature for 60 minutes. Added 20 μL/well of ADP-glo (Promega, V9103) with Combi, and incubated at room temperature for 40 minutes. Added 40 μL/well of ADP-glo (Promega, V9103) with Combi, incubated at room temperature for 30 minutes. Read on Envision for luminescence.
# [14] = molecular target: T1, GSK3β; assay: biochemical; remark: listed apart in the source
# [15] = molecular target: T2, GSK3α (Homo sapiens, UniProt P49840); assay: biochemical
# T2 sequence (P49840 whole entry): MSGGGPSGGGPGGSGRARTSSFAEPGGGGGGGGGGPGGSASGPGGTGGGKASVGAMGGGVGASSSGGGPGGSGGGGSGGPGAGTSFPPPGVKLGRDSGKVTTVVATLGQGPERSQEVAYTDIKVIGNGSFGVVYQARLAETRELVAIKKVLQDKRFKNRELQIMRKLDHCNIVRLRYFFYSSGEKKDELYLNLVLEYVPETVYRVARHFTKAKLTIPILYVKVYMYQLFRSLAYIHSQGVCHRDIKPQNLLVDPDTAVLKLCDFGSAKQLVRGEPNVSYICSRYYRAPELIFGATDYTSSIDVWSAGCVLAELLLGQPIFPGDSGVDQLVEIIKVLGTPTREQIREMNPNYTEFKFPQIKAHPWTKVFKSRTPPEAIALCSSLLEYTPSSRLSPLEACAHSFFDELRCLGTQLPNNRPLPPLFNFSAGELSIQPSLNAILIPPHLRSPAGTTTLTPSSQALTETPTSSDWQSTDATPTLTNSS
# [16] = molecular target: T2, GSK3α; settings: for IC50: read-out: Caliper Assay, GSK3α IC50; for GSK3α fold selectivity: GSK3α over GSK3β
# [17] = PBS stability; assay type: physicochemical
# Experimental: (§1) Stability was determined in the presence of PBS pH 7.4 with 0.1% DMSO. Each compound was prepared in duplicate on six separate plates and allowed to equilibrate at room temperature with a 250 rpm orbital shake for 48 hours. One plate was removed at each time point (0, 2, 4, 8, 24, and 48 hours). […] Additionally, to the remaining material at each time point, acetonitrile was added to force dissolution of compound (to test for recovery of compound). An aliquot of this was also analyzed by UPLC-MS.
# [18] = GSH stability; assay type: physicochemical; settings: after 48 hours
# Experimental: as §1, with “[…] and 50 μM glutathione” for “7.4”
# [19] = in mice (mouse plasma), 5 hours
# [20] = physchem
# Experimental: Solubility was determined in phosphate buffered saline (PBS) pH 7.4 with 1% DMSO. Each compound was prepared in duplicate at 100 μM in both 100% DMSO and PBS with 1% DMSO. Compounds were allowed to equilibrate at room temperature with a 250 rpm orbital shake for 24 hours.
# [21] = in vitro; settings: mouse, plasma, pH 7.4
# Experimental: Plasma protein binding was determined by equilibrium dialysis using the Rapid Equilibrium Dialysis (RED) device (Pierce Biotechnology, Rockford, Ill.) for both human and mouse plasma. […] Compounds were incubated at 37° C. for 5 hours with a 250 rpm orbital shake.
# T1 sequence (P49841 whole entry): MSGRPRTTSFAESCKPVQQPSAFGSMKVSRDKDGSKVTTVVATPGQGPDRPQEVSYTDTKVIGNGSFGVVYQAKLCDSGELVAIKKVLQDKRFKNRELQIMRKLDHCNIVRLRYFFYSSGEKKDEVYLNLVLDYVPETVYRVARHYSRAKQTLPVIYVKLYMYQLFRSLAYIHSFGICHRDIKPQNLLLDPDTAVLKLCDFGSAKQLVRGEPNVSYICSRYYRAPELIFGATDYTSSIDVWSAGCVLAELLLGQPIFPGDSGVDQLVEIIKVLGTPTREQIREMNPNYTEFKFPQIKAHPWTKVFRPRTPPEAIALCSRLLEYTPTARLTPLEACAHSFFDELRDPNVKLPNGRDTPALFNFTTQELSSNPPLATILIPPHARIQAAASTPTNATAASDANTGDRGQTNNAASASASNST
SMILES,EC50 [1] [nM],EC50 [11] [µM],EC50 [12] [µM],IC50 [13] [nM],IC50 [14] [nM],IC50 [15] [nM],other results
CC1(C)CC(=O)C2=C(C1)Nc1n[nH]c(C(F)(F)F)c1C2(C)c1ccccc1 (racemic) [Compound 68],1580,–,–,–,–,–,GSK3β fold selectivity [2]: 2.9 fold
"CC1(C)CC(=O)C2=C(C1)Nc1n[nH]c(C(F)(F)F)c1C2(C)c1ccccc1 (racemic) [Compound 70, 4,7,7-trimethyl-4-phenyl-3-(trifluoromethyl)-6,7,8,9-tetrahydro-2H-pyrazolo[3,4-b]quinolin-5(4H)-one]",–,–,–,–,–,–,"Amphetamine-induced hyperactivity, i.p. ([3]; systemic intraperitoneal injection): attenuate amphetamine-induced hyperactivity; Morphological AML differentiation (May-Grunwald Giemsa) [4]: induces morphological evidence of AML (acute myeloid leukemia) differentiation; Morphological AML differentiation (May-Grunwald Giemsa) ([4]; listed as compound 70): demonstrated cellular differentiation; AML differentiation by GE-HTS signature [5]: induces AML (acute myeloid leukemia) differentiation by GE-HTS signature; also recorded: induced a gene expression signature in AML cell lines consistent with myeloid differentiation; GSK3β fold selectivity [2]: 5 fold; Pharmacokinetic profile (systemic exposure, brain distribution) compared to CHIR99021 [6]: improved pharmacokinetic profile"
"COc1ccccc1C1C2=C(CC(C)(C)CC2=O)Nc2n[nH]c(C(F)(F)F)c21 (racemic) [racemic probe, 4-(2-methoxyphenyl)-7,7-dimethyl-3-(trifluoromethyl)-6,7,8,9-tetrahydro-2H-pyrazolo[3,4-b]quinolin-5(4H)-one]",–,–,–,–,–,–,"Mouse microsomes, % remaining [7]: < 1%"
"Cc1c[nH]c(-c2cnc(NCCNc3ccc(C#N)cn3)nc2-c2ccc(Cl)cc2Cl)n1 [CHIR99021, reference compound]",–,–,–,–,–,–,"Number of kinases inhibited greater than 50% at 10 μM ([8]; panel of 311 kinases, 10 μM): 21"
COc1ccccc1[C@@H]1C2=C(CC(C)(C)CC2=O)Nc2n[nH]c(C)c21 [Compound 22],–,–,–,–,–,–,"Amphetamine-induced hyperactivity, ICV ([3]; intracerebroventricular injection): attenuate amphetamine-induced hyperactivity; Neurogenesis [9]: promoted neurogenesis; Mode of inhibition of GSK3β [10]: competitive inhibition"
Cc1[nH]nc2c1C(C1CC1)C1=C(CC(C)(C)CC1=O)N2 (centres unmarked) [Compound 43],> 30000,> 50,> 25,1000 to 5000,1000 to 5000,1000 to 5000,–
COc1ccccc1C1C2=C(CCC(C)(C)C2=O)Nc2n[nH]c(C)c21 (centres unmarked) [Compound 45],–,> 50,> 25,101 to 1000,101 to 1000,101 to 1000,–
COc1ccccc1C1C2=C(CCCC2=O)Nc2n[nH]c(C)c21 (centres unmarked) [Compound 46],–,> 50,> 25,1000 to 5000,101 to 1000,101 to 1000,–
CCc1[nH]nc2c1C(c1ccccc1OC)C1=C(CC(C)(C)CC1=O)N2 (centres unmarked) [Compound 48],–,24.6,16.2,101 to 1000,–,–,IC50 [16]: < 100 nM
COc1ccccc1C1C2=C(CC(C)(C)CC2=O)Nc2n[nH]c(C(C)(C)C)c21 (centres unmarked) [Compound 50],–,> 50,> 25,101 to 1000,101 to 1000,1000 to 5000,–
COc1ccccc1C1C2=C(CC(C)(C)CC2=O)Nc2n[nH]c(-c3ccccc3)c21 (centres unmarked) [Compound 51],–,> 50,> 25,1000 to 5000,101 to 1000,101 to 1000,–
CC1(C)CC(=O)C2=C(C1)Nc1n[nH]c(C(F)(F)F)c1C2c1ccccc1 (centres unmarked) [Compound 52],507,13.1,9.32,–,–,–,IC50 [16]: < 100 nM
"COc1ccccc1[C@@H]1C2=C(CC(C)(C)CC2=O)Nc2n[nH]c(C(F)(F)F)c21 [Compound 54, (R)-4-(2-methoxyphenyl)-7,7-dimethyl-3-(trifluoromethyl)-6,7,8,9-tetrahydro-2H-pyrazolo[3,4-b]quinolin-5(4H)-one]",–,–,–,–,–,–,"recovery at 48 h ([17]; PBS, pH 7.4, after 48 hours of incubation, read-out: PBS stability, % still present (acetonitrile recovery)): > 95%; Concentration in PBS (0.1% DMSO) over time ([17]; over 48 hours, reflects kinetic solubility): about 200%; Glutathione (GSH) stability, % remaining [18]: 99%; Mode of inhibition of GSK3β [10]: ATP-competitive inhibition; Plasma stability % remaining [19]: 99%; Microsomal Stability ([7]; M): M: 0%; Percent of the kinome (311 kinases) inhibited [8]: 2.6%"
COc1ccccc1C1C2=C(CC3(CCCCC3)CC2=O)Nc2n[nH]c(C)c21 (centres unmarked) [Compound 56],–,> 50,> 25,101 to 1000,101 to 1000,101 to 1000,–
CC1(C)CC(=O)C2=C(C1)Nc1n[nH]c(C(F)(F)F)c1C2c1ccccc1C(F)(F)F (centres unmarked) [Compound 62],652,4.23,3.93,–,–,–,–
CC1(C)CC(=O)C2=C(C1)Nc1n[nH]c(C(F)(F)F)c1C2c1cccc(F)c1C(F)(F)F (centres unmarked) [Compound 63],1380,3.34,4.83,–,–,–,IC50 [16]: < 100 nM
Cc1[nH]nc2c1C(C)(c1ccccc1)C1=C(CC(C)(C)CC1=O)N2 (centres unmarked) [Compound 67],–,–,–,–,–,–,"GSK3α fold selectivity [16]: 5.2 fold; Mouse microsomes, % remaining [7]: 32%; Microsomal stability 60 min [7]: 32"
CC1(C)CC(=O)C2=C(C1)Nc1n[nH]c(C(F)(F)F)c1C2(C)c1ccccc1F (centres unmarked) [Compound 69],2410,–,20.8,–,< 100,–,GSK3α fold selectivity [16]: 1.7 fold; IC50 [16]: < 100 nM
CC1(C)CC(=O)C2=C(C1)Nc1n[nH]c(Br)c1C2c1ccccc1 (centres unmarked) [Compound 74],2090,–,6.19,–,< 100,–,IC50 [16]: < 100 nM
CC1(C)CC(=O)C2=C(C1)Nc1n[nH]c(C(F)(F)F)c1C2c1cccnc1 (centres unmarked) [Compound 76],2090,–,6.19,–,< 100,101 to 1000,–
Cc1[nH]nc2c1C(c1ccccc1)(C(F)(F)F)C1=C(CC(C)(C)CC1=O)N2 (centres unmarked) [Compound 83],–,–,–,–,–,–,"IC50 [16]: < 100 nM; Microsomal stability 60 min [7]: 51.5; solubility [20]: 410 µM; fraction unbound at 5 h, 5 μM [21]: 0.102"
